“Also recorded” adds a separate entry of the source.
Legend:
PBT-05 cells [1] = experiment: In vitro chemotaxis assay (Incucyte transwell); type: cell-based, human; settings: patient-derived pHGG line PBT-05
Source text: Locally delivered therapeutics in the brain may need to account for the tendency of remnant brain tumor cells to migrate away from the tumor margins—potentially out of reach locally delivered therapeutics. Here, artificial gradients of chemokines were used to lure tumor cells and phagocytic cells in the brain towards a static “trap” of macrophage-enhancing therapeutics to facilitate tumor cell elimination. Referring to FIGS. 4A-4D, to model this, a patient-derived, pediatric high grade glioma (pHGG) line, PBT-05, was used. […] In vitro chemotaxis assays were carried out with PBT-05 against a panel of classical chemokines cited in literature as potentially being potent against migratory brain tumor cells. […] Without wishing to be bound by theory, it is believed that PBT-05's attraction towards hCCL2 gradients may be mediated by another receptor promiscuous with this chemokine. While this receptor was not identified, mCCL2 may not bind to it or produce the same downstream signaling. However, its chemotactic sensitivity to human and murine CXCL12 may be mediated by the canonical pathway.
Chemokines were purchased from: Sigma-Aldrich (CCL2: SRP3109) and RnD Systems (CXCL12: 350-NS/CF). Cell migration assays were performed using the chemotaxis module on the Incucyte Zoom 2016 and S3 (Essen Bio). Specialized 96 well transwell plates and reservoir dishes were supplied by the manufacturer (cat no's 4582, 4600). H2B-GFP+ PBT05 lines cells were cultured in the Neuralcult media+supplement without EGF/FGF to reduce background mobility caused by these growth factors. The Incucyte software was tailored to identify GFP+ nuclei to count the number of tumor cells on top and bottom of the transwell membranes.

human GB line = settings: CXCR4 blocked; cited from earlier work
PBT-05 cells [2] = experiment: In vitro phagocytosis assay, PBT-05 co-culture with murine bone marrow derived macrophages (BMDM); type: cell-based, human; settings: for contribution to tumor cell cytotoxicity when added to CD47 blockade: murine macrophage co-cultures, compared with CD47 blockade alone; for effect on viability of tumor cells in co-culture: polarizing agent without CD47mAb
Source text: These cultures were challenged with combinations of macrophage checkpoint inhibitors (MCIs) and immune cell polarizing factors described by literature as capable of promoting an immune response against tumor cells. […] Compared to a media control, no combination of MCIs and polarizing factors caused significant cytotoxicity of PBT-05 cells cultured alone, confirming the observed cytotoxic effect is mediated by the macrophages, not the drugs themselves.
Murine monocytes were harvested and cultured from femurs of C57BL/6 mice using RPMI (Thermofisher, 11875093) containing 10% heat deactivated FBS and 100 ng/mL mCSF1 for 7 days. Mature macrophages from these cultures were later harvested for experiments. Human monocytes were isolated from human PBMCs (Bloodworks) and purified by EasySep monocyte depletion kit (StemCell, 19355). Monocytes were cultured in RPMI containing 10% heat deactivated FBS and 25 ng/mL human CSF1 for 10 days. 50 ng/mL IL-10 was added to the cultures at day 5 to induce M2 phenotypes. Mature macrophages were later harvested for use in experiments.
Monoclonal antibodies were purchased from Bioxcell (LEAF hCD47, BE0019) and Biolegend (LEAF hCD24mAb: 101810, MsIgG1: 400153). Phagocytosis assays were performed using the Basic Analyzer software on Essen Bio's Incucyte Zoom and Incucyte S3. 12 or 24 well plates were seeded 1:1 with GFP+ tumor lines and macrophages (murine/human) in fully supplemented Neuralcult plus various MCIs and immunomodulators described previously. Using the aforementioned definitions, the Incucyte calculated tumor cell counts based on the number of GFP+ nuclei in the wells over time.

[3] = biological target: CD47 on PBT-05 patient-derived pediatric high grade glioma cells (human) (UniProt Q08722); experiment: cell-based or functional assay
Sequence of UniProt Q08722 (Q08722 19-323): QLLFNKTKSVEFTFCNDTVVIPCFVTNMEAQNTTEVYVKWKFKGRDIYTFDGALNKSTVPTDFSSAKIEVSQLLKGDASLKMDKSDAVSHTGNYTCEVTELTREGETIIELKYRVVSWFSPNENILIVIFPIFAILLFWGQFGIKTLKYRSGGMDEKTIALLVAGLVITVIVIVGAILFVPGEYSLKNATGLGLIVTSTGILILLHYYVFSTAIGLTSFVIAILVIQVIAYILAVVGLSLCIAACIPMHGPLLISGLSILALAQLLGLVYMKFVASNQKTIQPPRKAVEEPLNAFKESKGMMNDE

## mCCL2: murine version of the chemokine CCL2
PBT-05 cells [1]
  chemotaxis of PBT-05 cells (chemotactic potency): unresponsive

## mCXCL12: murine CXCL12 chemokine
PBT-05 cells [1]
  chemotaxis of PBT-05 cells (chemotactic potency): lost some potency

## CXCL12: classical chemokine, ligand of CXCR4, purchased from RnD Systems (350-NS/CF)
PBT-05 cells [1]
  chemotaxis of PBT-05 cells (chemotactic potency): effective at eliciting chemotaxis; also recorded: induced varying degrees of chemotaxis; also recorded: effective at eliciting migration; also recorded: effectively chemoattract; also recorded: varying sensitivity

## c1cc(CN2CCCNCCNCCCNCC2)ccc1CN1CCCNCCNCCCNCC1 [AMD3100]
Human GB line
  chemotaxis towards gradients of CXCL12: reduced chemotaxis

## CCOCc1nc2c(N)nc3ccccc3c2n1CC(C)(C)O [R848, reference compound]
PBT-05 cells [2]
  contribution to tumor cell cytotoxicity when added to CD47 blockade: did not significantly contribute to tumor cell cytotoxicity; also recorded: did not significantly increase cytotoxicity
  effect on viability of tumor cells in co-culture: mild effects

## CCL2: classical chemokine, purchased from Sigma-Aldrich (SRP3109)
PBT-05 cells [1]
  chemotaxis of PBT-05 cells (chemotactic potency): induced varying degrees of chemotaxis; also recorded: varying sensitivity

## LEAF hCD47 monoclonal antibody (Bioxcell, BE0019)
[3]
  phagocytosis of PBT-05 cells by murine and human macrophages in co-culture (tumor cell count); antibody concentration that was effective: 1 µg/mL

## hCCL2: human CCL2 chemokine
PBT-05 cells [1]
  chemotaxis of PBT-05 cells (chemotactic potency): greatest potency of the chemokines tested

B1: IFNg: polarizing agent (cytokine) that induces activated phenotypes in macrophages (protein, UniProt P01579 24-161, looked up)
Interferon gamma: QDPYVKEAENLKKYFNAGHSDVADNGTLFLGILKNWKEESDRKIMQSQIVSFYFKLFKNFKDDQSIQKSVETIKEDMNVKFFNSNKKKRDDFEKLTNYSVTDLNVQRKAIHELIQVMAELSPAAKTGKRKRSQMLFRG
PBT-05 cells [2]
  contribution to tumor cell cytotoxicity when added to CD47 blockade: did not significantly contribute to tumor cell cytotoxicity; also recorded: did not significantly increase cytotoxicity
  effect on viability of tumor cells in co-culture: mild effects

Reference: patent publication US20230097658A1, “TUNABLE EXTENDED RELEASE HYDROGELS” (FRED HUTCHINSON CANCER RESEARCH CENTER, priority 2020, published 2023)
